In patent US10392422B2, “Macrocyclic broad spectrum antibiotics” (priority 2014, dated 2019):
≈ marks a conversion by molar mass, not a printed value. Read-outs that look alike come from different tables or passages of the source.

Legend:
Test in all cases: MIC, broth micro-dilution technique (CLSI)
[1] = test system: Escherichia coli MC4100 harboring the IMP4213; format: cell-based; details: Escherichia coli, 22 h, 35° C., 22 hours
In short: (§1)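 Cation-adjusted MHB + 0.002% Tween-80; 10-point 2-fold series starting 64 μg/ml (modified protocol: 4 μg/mL). Final inoculum OD600 0.0005; 35° C, 22 h. MIC per CLSI M07-A8 broth microdilution.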

[2] = test system: Methicillin Resistant Staphylococcus aureus strain USA 300 (NRS384); format: cell-based; details: Staphylococcus aureus, 22 h, read-out: MIC (μg/mL) S. aureus
In short: as §1

MRSA COL (NRS100) = format: cell-based, Staphylococcus aureus; details: Staphylococcus aureus, 22 h, read-out: MIC (μg/mL) (COL)
In short: as §1

[3] = read-out: MIC (μg/mL) E. coli, Table 2 modified protocol: serial 2-fold dilutions starting from 4 μg/mL
[4] = read-out: MIC (μg/mL) E. coli, Table 1 protocol: serial 2-fold dilutions starting from 64 μg/ml

Compound | MIC [1, 3] | MIC [2] | MIC (MRSA COL (NRS100)) | MIC [1, 4]
C[C@@H]1NC(=O)[C@@H](N(C)C(=O)[C@H](CCCCN)NC(=O)c2ccc(/C=C/c3ccccc3)cc2)c2ccc(OCCN)c(c2)-c2cc(ccc2OCCN)C[C@@H](C(=O)O)NC1=O [Compound 281] | 0.25 µg/mL (≈ 0.3 µM) | 3 µg/mL (≈ 3.6 µM) | 1 µg/mL (≈ 1.2 µM) | –
C[C@@H]1NC(=O)[C@@H](N(C)C(=O)[C@H](CCCCN)NC(=O)c2cccc(-c3ccc(Cl)cc3)c2)c2ccc(OCCN)c(c2)-c2cc(ccc2OCCN)C[C@@H](C(=O)O)NC1=O [Compound 282] | 1 µg/mL (≈ 1.19 µM) | > 4 µg/mL | 2 µg/mL (≈ 2.37 µM) | –
C[C@@H]1NC(=O)[C@@H](N(C)C(=O)[C@H](CCCCN)NC(=O)c2ccc(-c3ccccc3Cl)cc2)c2ccc(OCCN)c(c2)-c2cc(ccc2OCCN)C[C@@H](C(=O)O)NC1=O [Compound 283] | 1 µg/mL (≈ 1.19 µM) | 4 µg/mL (≈ 4.75 µM) | 1.5 µg/mL (≈ 1.78 µM) | –
C[C@@H]1NC(=O)[C@@H](N(C)C(=O)[C@H](CCCCN)NC(=O)c2ccccc2-c2ccc(Cl)cc2)c2ccc(OCCN)c(c2)-c2cc(ccc2OCCN)C[C@@H](C(=O)O)NC1=O [Compound 284] | > 4 µg/mL | > 4 µg/mL | > 4 µg/mL | –
C[C@@H]1NC(=O)[C@@H](N(C)C(=O)[C@H](CCCCN)NC(=O)c2ccc(Oc3ccc(Cl)cc3)cc2)c2ccc(OCCN)c(c2)-c2cc(ccc2OCCN)C[C@@H](C(=O)O)NC1=O [Compound 285] | 0.25 µg/mL (≈ 0.291 µM) | 2 µg/mL (≈ 2.33 µM) | 0.5 µg/mL (≈ 0.582 µM) | –
C[C@@H]1NC(=O)[C@@H](N(C)C(=O)[C@H](CCCCN)NC(=O)Cc2ccc(-c3ccc(Cl)cc3)cc2)c2ccc(OCCN)c(c2)-c2cc(ccc2OCCN)C[C@@H](C(=O)O)NC1=O [Compound 286] | 4 µg/mL (≈ 4.67 µM) | 4 µg/mL (≈ 4.67 µM) | 1.5 µg/mL (≈ 1.75 µM) | –
C[C@@H]1NC(=O)[C@@H](N(C)C(=O)[C@H](CCCCN)NC(=O)c2ccc(-c3ccc(-c4ccccc4)cc3)cc2)c2ccc(OCCN)c(c2)-c2cc(ccc2OCCN)C[C@@H](C(=O)O)NC1=O [Compound 287] | 0.047 µg/mL (≈ 0.0532 µM) | 0.25 µg/mL (≈ 0.283 µM) | 0.094 µg/mL (≈ 0.106 µM) | –
CCCCc1ccc(-c2cccc(C(=O)N[C@@H](CCCCN)C(=O)N(C)[C@@H]3C(=O)N[C@@H](C)C(=O)N[C@H](C(=O)O)Cc4ccc(OCCN)c(c4)-c4cc3ccc4OCCN)c2)cc1 [Compound 288] | 0.13 µg/mL (≈ 0.15 µM) | 0.5 µg/mL (≈ 0.579 µM) | 0.25 µg/mL (≈ 0.289 µM) | –
C[C@@H]1NC(=O)[C@@H](N(C)C(=O)[C@H](CCCCN)NC(=O)c2ccc(-c3ccc(Cl)cc3)cc2)c2ccc(OCCN)c(c2)-c2cc(ccc2OCCN)C[C@@H](C(=O)O)NC1=O [Compound 289] | – | 2 µg/mL (≈ 2.37 µM) | 0.5 µg/mL (≈ 0.594 µM) | 0.5 µg/mL (≈ 0.594 µM)
C[C@@H]1NC(=O)[C@@H](N(C)C(=O)[C@H](CCCCN)NC(=O)c2ccc(-c3ccc(Cl)cc3)cc2)c2cc(C#N)c(O)c(c2)-c2cc(ccc2O)C[C@@H](C(=O)O)NC1=O [Compound 290] | – | 64 µg/mL (≈ 81.9 µM) | 32 µg/mL (≈ 41 µM) | 32 µg/mL (≈ 41 µM)
CCCCCCCCCCCCCC(=O)N(C)[C@@H]1C(=O)N[C@@H](C)C(=O)N[C@H](C(=O)O)Cc2ccc(OCCN)c(c2)-c2cc1ccc2OCCN [Compound 291] | – | 8 µg/mL (≈ 11.3 µM) | 4 µg/mL (≈ 5.63 µM) | 8 µg/mL (≈ 11.3 µM)
CCCCCCCCCCCCCC(=O)N[C@@H](CCCCN)C(=O)N(C)[C@@H]1C(=O)N[C@@H](C)C(=O)N[C@H](C(=O)O)Cc2ccc(OCCN)c(c2)-c2cc1ccc2OCCN [Compound 293] | – | 0.063 µg/mL (≈ 0.0752 µM) | 0.063 µg/mL (≈ 0.0752 µM) | 0.063 µg/mL (≈ 0.0752 µM)
CCCCc1ccc(-c2ccc(C(=O)N[C@@H](CCCCN)C(=O)N(C)[C@@H]3C(=O)N[C@@H](C)C(=O)N[C@H](C(=O)O)Cc4ccc(OCCN)c(c4)-c4cc3ccc4OCCN)cc2)cc1 [Compound 294] | – | 0.15 µg/mL (≈ 0.174 µM) | 0.063 µg/mL (≈ 0.0729 µM) | 0.063 µg/mL (≈ 0.0729 µM)
CCCCc1ccc(-c2ccc(C(=O)N[C@@H](CCCN)C(=O)N(C)[C@@H]3C(=O)N[C@@H](C)C(=O)N[C@H](C(=O)O)Cc4ccc(OCCN)c(c4)-c4cc3ccc4OCCN)cc2)cc1 [Compound 295] | – | 0.19 µg/mL (≈ 0.224 µM) | 0.063 µg/mL (≈ 0.0741 µM) | 0.063 µg/mL (≈ 0.0741 µM)
CCCCCCCCc1ccc(C(=O)N[C@@H](CCCN)C(=O)N(C)[C@@H]2C(=O)N[C@@H](C)C(=O)N[C@H](C(=O)O)Cc3ccc(OCCN)c(c3)-c3cc2ccc3OCCN)c(C)c1 [Compound 296] | – | 0.063 µg/mL (≈ 0.0746 µM) | 0.063 µg/mL (≈ 0.0746 µM) | 0.063 µg/mL (≈ 0.0746 µM)
